Assay results from PubChem BioAssay (NCI).
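96-well plates; 48 h exposure; 5 concentrations. Endpoints by linear interpolation between flanking doses. Not reached: highest tested concentration assigned. TGI marks complete inhibition of growth.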

Experiments:
Test in all cases: growth of human tumour cells (NCI), 48 h
786-0 renal = system: 786-0 renal
A549 NSCLC = system: A549 NSCLC
ACHN renal = system: ACHN renal
CAKI-1 renal = system: CAKI-1 renal
CCRF-CEM leukemia = system: CCRF-CEM leukemia
COLO 205 colon = system: COLO 205 colon
DLD-1 colon = system: DLD-1 colon
DMS 114 small cell lung = system: DMS 114 small cell lung
DMS 273 small cell lung = system: DMS 273 small cell lung
EKVX NSCLC = system: EKVX NSCLC
HCC-2998 colon = system: HCC-2998 colon
HCT-15 colon = system: HCT-15 colon
HL-60(TB) leukemia = system: HL-60(TB) leukemia
HOP-62 NSCLC = system: HOP-62 NSCLC
HOP-92 NSCLC = system: HOP-92 NSCLC
IGROV1 ovarian = system: IGROV1 ovarian
K-562 leukemia = system: K-562 leukemia
KM12 colon = system: KM12 colon
KM20L2 colon = system: KM20L2 colon
LOX IMVI melanoma = system: LOX IMVI melanoma
LXFL 529 NSCLC = system: LXFL 529 NSCLC
M14 melanoma = system: M14 melanoma
MALME-3M melanoma = system: MALME-3M melanoma
MOLT-4 leukemia = system: MOLT-4 leukemia
NCI-H23 lung = system: NCI-H23 lung
NCI-H460 lung = system: NCI-H460 lung
NCI-H522 lung = system: NCI-H522 lung
OVCAR-3 ovarian = system: OVCAR-3 ovarian
OVCAR-4 ovarian = system: OVCAR-4 ovarian
OVCAR-5 ovarian = system: OVCAR-5 ovarian
OVCAR-8 ovarian = system: OVCAR-8 ovarian
RPMI-8226 leukemia = system: RPMI-8226 leukemia
RXF 393 renal = system: RXF 393 renal
SF-268 CNS = system: SF-268 CNS
SF-295 CNS = system: SF-295 CNS
SK-MEL-2 melanoma = system: SK-MEL-2 melanoma
SK-MEL-28 melanoma = system: SK-MEL-28 melanoma
SK-MEL-5 melanoma = system: SK-MEL-5 melanoma
SK-OV-3 ovarian = system: SK-OV-3 ovarian
SN12C renal = system: SN12C renal
SNB-19 CNS = system: SNB-19 CNS
SNB-75 CNS = system: SNB-75 CNS
SNB-78 CNS = system: SNB-78 CNS
SW-620 colon = system: SW-620 colon
TK-10 renal = system: TK-10 renal
UACC-257 melanoma = system: UACC-257 melanoma
UACC-62 melanoma = system: UACC-62 melanoma
UO-31 renal = system: UO-31 renal
XF 498 CNS = system: XF 498 CNS
A498 renal = system: A498 renal
BT-549 breast = system: BT-549 breast
DU-145 prostate = system: DU-145 prostate
HCT-116 colon = system: HCT-116 colon
HS 578T breast = system: HS 578T breast
HT29 colon = system: HT29 colon
MCF7 breast = system: MCF7 breast
MDA-MB-231 breast = system: MDA-MB-231 breast
MDA-MB-435 = system: MDA-MB-435
MDA-N = system: MDA-N
NCI-H226 lung = system: NCI-H226 lung
NCI/ADR-RES ovarian = system: NCI/ADR-RES ovarian
PC-3 prostate = system: PC-3 prostate
SF-539 CNS = system: SF-539 CNS
SR leukemia = system: SR leukemia
T-47D breast = system: T-47D breast
U251 CNS = system: U251 CNS

## CC(=O)Nc1c(Nc2ccccc2)[nH]c(C)nc1=S
786-0 renal
  TGI: > 100 µM
A549 NSCLC
  TGI: > 100 µM
ACHN renal
  TGI: > 100 µM
CAKI-1 renal
  TGI: > 100 µM
CCRF-CEM leukemia
  TGI: > 100 µM
COLO 205 colon
  TGI: > 100 µM
DLD-1 colon
  TGI: > 100 µM
DMS 114 small cell lung
  TGI: > 100 µM
DMS 273 small cell lung
  TGI: > 100 µM
EKVX NSCLC
  TGI: > 100 µM
HCC-2998 colon
  TGI: > 100 µM
HCT-15 colon
  TGI: > 100 µM
HL-60(TB) leukemia
  TGI: > 100 µM
HOP-62 NSCLC
  TGI: > 100 µM
HOP-92 NSCLC
  TGI: > 100 µM
IGROV1 ovarian
  TGI: > 100 µM
K-562 leukemia
  TGI: > 100 µM
KM12 colon
  TGI: > 100 µM
KM20L2 colon
  TGI: > 100 µM
LOX IMVI melanoma
  TGI: > 100 µM
LXFL 529 NSCLC
  TGI: > 100 µM
M14 melanoma
  TGI: > 100 µM
MALME-3M melanoma
  TGI: > 100 µM
MOLT-4 leukemia
  TGI: > 100 µM
NCI-H23 lung
  TGI: > 100 µM
NCI-H460 lung
  TGI: > 100 µM
NCI-H522 lung
  TGI: > 100 µM
OVCAR-3 ovarian
  TGI: > 100 µM
OVCAR-4 ovarian
  TGI: > 100 µM
OVCAR-5 ovarian
  TGI: > 100 µM
OVCAR-8 ovarian
  TGI: > 100 µM
RPMI-8226 leukemia
  TGI: > 100 µM
RXF 393 renal
  TGI: > 100 µM
SF-268 CNS
  TGI: > 100 µM
SF-295 CNS
  TGI: > 100 µM
SK-MEL-2 melanoma
  TGI: > 100 µM
SK-MEL-28 melanoma
  TGI: > 100 µM
SK-MEL-5 melanoma
  TGI: > 100 µM
SK-OV-3 ovarian
  TGI: > 100 µM
SN12C renal
  TGI: > 100 µM
SNB-19 CNS
  TGI: > 100 µM
SNB-75 CNS
  TGI: > 100 µM
SNB-78 CNS
  TGI: > 100 µM
SW-620 colon
  TGI: > 100 µM
TK-10 renal
  TGI: > 100 µM
UACC-257 melanoma
  TGI: > 100 µM
UACC-62 melanoma
  TGI: > 100 µM
UO-31 renal
  TGI: > 100 µM
XF 498 CNS
  TGI: > 100 µM

## CCOC(=O)C(NC(=O)c1ccccc1)(N1CCN(c2cc3c(cc2F)c(=O)c(C(=O)O)cn3CC)CC1)C(F)(F)F (stereo not given)
786-0 renal
  TGI: > 100 µM
A498 renal
  TGI: 65.2 µM
A549 NSCLC
  TGI: > 100 µM
ACHN renal
  TGI: > 100 µM
BT-549 breast
  TGI: > 100 µM
CAKI-1 renal
  TGI: 48.4 µM
CCRF-CEM leukemia
  TGI: 86.2 µM
COLO 205 colon
  TGI: 31.1 µM
DU-145 prostate
  TGI: > 100 µM
EKVX NSCLC
  TGI: 49 µM
HCC-2998 colon
  TGI: > 100 µM
HCT-116 colon
  TGI: > 100 µM
HCT-15 colon
  TGI: 64.9 µM
HL-60(TB) leukemia
  TGI: 43 µM
HOP-62 NSCLC
  TGI: > 100 µM
HOP-92 NSCLC
  TGI: 84.4 µM
HS 578T breast
  TGI: > 100 µM
HT29 colon
  TGI: > 100 µM
IGROV1 ovarian
  TGI: > 100 µM
K-562 leukemia
  TGI: > 100 µM
KM12 colon
  TGI: 81.3 µM
LOX IMVI melanoma
  TGI: 35.4 µM
M14 melanoma
  TGI: > 100 µM
MALME-3M melanoma
  TGI: 90.1 µM
MCF7 breast
  TGI: 69.2 µM
MDA-MB-231 breast
  TGI: 82.9 µM
MDA-MB-435
  TGI: > 100 µM
MDA-N
  TGI: > 100 µM
MOLT-4 leukemia
  TGI: 54.2 µM
NCI-H226 lung
  TGI: 90.7 µM
NCI-H23 lung
  TGI: > 100 µM
NCI-H460 lung
  TGI: > 100 µM
NCI-H522 lung
  TGI: 32.4 µM
NCI/ADR-RES ovarian
  TGI: > 100 µM
OVCAR-3 ovarian
  TGI: > 100 µM
OVCAR-4 ovarian
  TGI: > 100 µM
OVCAR-5 ovarian
  TGI: 45.3 µM
OVCAR-8 ovarian
  TGI: 47.3 µM
PC-3 prostate
  TGI: > 100 µM
RPMI-8226 leukemia
  TGI: 69 µM
RXF 393 renal
  TGI: > 100 µM
SF-268 CNS
  TGI: > 100 µM
SF-295 CNS
  TGI: > 100 µM
SF-539 CNS
  TGI: 82.9 µM
SK-MEL-2 melanoma
  TGI: > 100 µM
SK-MEL-5 melanoma
  TGI: 65.7 µM
SK-OV-3 ovarian
  TGI: 79.5 µM
SN12C renal
  TGI: > 100 µM
SNB-19 CNS
  TGI: > 100 µM
SNB-75 CNS
  TGI: 90 µM
SR leukemia
  TGI: 62.5 µM
SW-620 colon
  TGI: > 100 µM
T-47D breast
  TGI: 88.6 µM
TK-10 renal
  TGI: 94.8 µM
U251 CNS
  TGI: > 100 µM
UACC-257 melanoma
  TGI: 44.7 µM
UACC-62 melanoma
  TGI: > 100 µM
UO-31 renal
  TGI: 98.1 µM

## O=[N+]([O-])C=C(c1ccc(Cl)cc1)c1ccc(Cl)cc1
786-0 renal
  TGI: 30.6 µM
A498 renal
  TGI: 36.2 µM
A549 NSCLC
  TGI: 46.7 µM
ACHN renal
  TGI: 30.5 µM
CAKI-1 renal
  TGI: 37.7 µM
CCRF-CEM leukemia
  TGI: 67.7 µM
COLO 205 colon
  TGI: 12.2 µM
DLD-1 colon
  TGI: 32 µM
DMS 114 small cell lung
  TGI: 28.5 µM
DMS 273 small cell lung
  TGI: 20.1 µM
EKVX NSCLC
  TGI: 32.5 µM
HCC-2998 colon
  TGI: 34.4 µM
HCT-116 colon
  TGI: 31.5 µM
HCT-15 colon
  TGI: 38 µM
HL-60(TB) leukemia
  TGI: 44 µM
HOP-62 NSCLC
  TGI: 37.5 µM
HT29 colon
  TGI: 35.5 µM
IGROV1 ovarian
  TGI: 48.1 µM
K-562 leukemia
  TGI: 50.2 µM
KM12 colon
  TGI: 30.1 µM
KM20L2 colon
  TGI: 38.9 µM
LOX IMVI melanoma
  TGI: 25.5 µM
LXFL 529 NSCLC
  TGI: 28.5 µM
M14 melanoma
  TGI: 30.5 µM
MOLT-4 leukemia
  TGI: 56.9 µM
NCI-H226 lung
  TGI: 30.7 µM
NCI-H23 lung
  TGI: 25.6 µM
NCI-H460 lung
  TGI: 36.7 µM
NCI-H522 lung
  TGI: 28.8 µM
OVCAR-4 ovarian
  TGI: 27.6 µM
OVCAR-5 ovarian
  TGI: 27.7 µM
OVCAR-8 ovarian
  TGI: 36.3 µM
RPMI-8226 leukemia
  TGI: 34 µM
RXF 393 renal
  TGI: 33.5 µM
SF-295 CNS
  TGI: 32.8 µM
SF-539 CNS
  TGI: 31.5 µM
SK-MEL-2 melanoma
  TGI: 57 µM
SK-MEL-28 melanoma
  TGI: 31 µM
SN12C renal
  TGI: 35.6 µM
SNB-19 CNS
  TGI: 36.5 µM
SNB-75 CNS
  TGI: 39.7 µM
SNB-78 CNS
  TGI: 44 µM
SR leukemia
  TGI: 54 µM
SW-620 colon
  TGI: 31 µM
TK-10 renal
  TGI: 33.5 µM
U251 CNS
  TGI: 29.8 µM
UACC-257 melanoma
  TGI: 36.9 µM
UO-31 renal
  TGI: 27.2 µM
